Publication PMC3857039, “First Quantitative Imaging of Organic Fluorine within Angiogenic Tissues by Particle Induced Gamma-Ray Emission (PIGE) Analysis: First PIGE Organic Fluorine Imaging” (Pharmaceutics, 2011)
Where a SMILES comes first, the peptide text is derived from it. [ ]: non-standard residue; d: D form. The star is where a group is joined. X1 = FC(F)(F)C(F)(F)C(F)(F)C(F)(F)C(F)(F)C(F)(F)CCCOCCOCCOCCN*

Assays:
[1] = system: chicken chorioallantoic membrane (CAM); experiment: PIGE/RBS quantification of fluorine in normal CAM tissue and capillaries after intravascular injection of fluorinated tracer; format: in vivo; settings: for Average fluorine concentration, physiological tissue, CAM (surrounding tissue) / Average fluorine concentration, physiological tissue, Capillaries: 100 μL per embryo, sacrifice 6 h after injection, PIGE
Procedure: (§1) In preparation for the intravascular injection, 274 mg of FDG is dissolved in 1 mL sterile PBS. For the polyfluorinated glucose solution, 10 mg of the probe was added to 1 mL of polypropylene glycol (MW = 400 g/mol). F13-CBO-P11 solutions were prepared in sterile PBS. For the latter, solutions were obtained by the addition of 20 mg and 35 mg of peptide in 1 mL sterile PBS.
(§2) Fertilized chicken eggs were incubated at 37 °C in a humidified atmosphere. On day 4 of incubation, a window was made in the shell in order to visualize the chorio allantoïc membrane (CAM). On embryonic day 10, in the tumor group, a ring was put on the CAM and U87 glioma cells (5 million cells per egg suspended in 20 μL of medium) were deposited on the CAM within the ring after gentle laceration of the surface. In the other group, a nylon grid was put on the CAM to allow normal tissue to grow on the grid. After 7 days of implantation (embryonic day 17), FDG, polyfluorinated glucose and F13-CBO-P11 solutions were then injected in a blood vessel of the CAM of each egg (100 μL per embryo). Embryos were sacrificed 6 hours after injection. All samples were removed and snap-frozen in liquid nitrogen-chilled isopentane at −160 °C. CAM samples and normal tissue (S1, Scheme 1) coming from nylon grid were then put on targets (2 mm-thick and 20 mm-diameter aluminium target with a 5 mm-hole in the centre) and freeze-dried during 3 days at−30 °C in a cryostat (CM3050S, Leica Microsystems). Tumors were conserved at −80 °C until sectioning. For tumor tissue, successive serial sections (at 100, 200 and 300 μm) were obtained from the CAM to the tumor (S2 to S4, Scheme 1) using the cryostat, put on targets and freeze-dried. After sample preparation, microphotographs were taken to monitor the experiment.
(§3) Particle Induced γ-ray Emission (PIGE) and Rutherford Backscattering Spectrometry (RBS) were performed simultaneously to determine trace elements quantitative distribution, such as F and Fe, and major element as C, N, and O determination, respectively (Figure1). Analyses were performed with proton beam energy at 3.4 MeV in order to benefit from a high cross section for the nuclear reaction for fluorine. Analyses were realized on zones of typically 850 × 850 μm in a scanning mode of the proton beam. The beam was focused onto the sample surface to a spot of 5 μm in diameter, resulting in a proton beam current of 500 pA as measured with a Faraday cup below the sample. Characteristics gamma rays emitted from elements of the target were detected with an ultralow energy planar germanium detector (surface of the Ge crystal is 100 mm², thickness 10 mm) placed at 45° from incident beam. The γ-ray detector was covered by a 100 μm thick carbon filter (hole 0.2% of the total filter surface), to protect the γ-ray detector from backscattered particles. The RBS measurements were performed using a PIPS detector (passivated implanted planar silicon) placed at 135° from the incident beam direction.
(§4) CaF2 micromatter standard (certified material from NIST) and a PVDF film (polyvinylidene difluoride, 25 μm thick) were used as external standard in order to verify the quantification process. γ-ray emission data were analyzed with the Supavisio software to create mask of interesting areas of selected chemical elements. RBS data were analyzed with SIMNRA code.
The quantification of fluorine was performed by comparative analysis with reference standard. PVDF films were analyzed in order to simulate the composition and thickness of biological samples. PyMCA software was used to fit the 110 keV γ peak on PIGE spectra on a PVDF film and biological samples. The intensity of the peak in the PVDF was used to normalize yield in samples [14, 16].
The combination of PIGE and RBS quantitative data were used for mass normalization of y-ray emission, leading to element concentrations expressed in terms of μg of element per g of dry mass sample. […]

[2] = system: U87 human glioma cells tumor xenografted on the CAM; experiment: PIGE/RBS quantification of fluorine in sections of U87 glioma tumor implanted on the CAM after intravascular injection of fluorinated tracer; format: in vivo, chicken; settings: for Average fluorine concentration, pathological tissue, tumor section (surrounding tissue) / Average fluorine concentration, pathological tissue, capillaries of tumor section / Average fluorine concentration, pathological tissue, Tumor: sacrifice 6 h after injection, PIGE, per g dry mass; for Average fluorine concentration, pathological tissue, Tumor: FDG 1.53 M
Procedure: as §1
U87 human glioma cells (ATCC) were selected for the study as an established model for malignant gliomas that form highly vascularized tumors. Cells were maintained in culture using Dulbecco's modified Eagle's medium (DMEM) with 10% FBS, L-glutamine (2 mmol L^−1), and antibiotics (penicillin 50 UI mL^−1, streptomycin 50 μg mL^−1). Cell culture was performed in a 37 °C incubator with humidified atmosphere and 5% CO2. Cells were grown to confluence, harvested after trypsinization, and re-suspended in serum-free DMEM for implantation.
as §2, §3, §4
The quantification of fluorine was performed by comparative analysis with reference standard. […]

[3] = system: U87 human glioma cells tumor xenografted on the CAM; experiment: as above; format: in vivo, chicken; settings: Sample 2, section S1 (tumor section); FDG 0.77 M in PBS, 100 μL per embryo, sacrifice 6 h after injection; PIGE; per g dry mass
[4] = Sample 8, section S1 (CAM sample, no tumor), 35 mM in PBS, per g dry mass
[5] = Sample 6, serial tumor section S2, 20 mM in PBS, 100 μL per embryo
[6] = Sample 7, serial tumor section S2, 35 mM in PBS, 100 μL per embryo
[7] = Sample 3, section S1 (CAM sample, no tumor), FDG 1.53 M in PBS, per g dry mass

CC[C@H](C)[C@@H]1NC(=O)[C@H](Cc2c[nH]cn2)NC(=O)[C@H](CCC(N)=O)NC(=O)CNC(=O)[C@H](CCC(N)=O)NC(=O)[C@H](Cc2c[nH]cn2)NC(=O)[C@@H]2CCCN2C(=O)[C@H](CCCCN)NC(=O)[C@H]([C@@H](C)CC)NC(=O)[C@H](CCCNC(=N)N)NC(=O)[C@H](CCSC)NC(=O)[C@H]([C@@H](C)CC)NC(=O)[C@H](CCC(N)=O)NC(=O)[C@@H]2CCCN2C(=O)[C@@H](Cc2ccccc2)NC(=O)[C@H](CCC(=O)NCCOCCOCCOCCCC(F)(F)C(F)(F)C(F)(F)C(F)(F)C(F)(F)C(F)(F)F)NC(=O)CNC1=O [Compound F13-CBO-P11] (cyclo(E(X1)[dF]PQIMRIKPHQGQHIG))
Average fluorine concentration, physiological tissue, CAM (surrounding tissue) [1, 4]: 2050±175 μg/g | Average fluorine concentration, physiological tissue, Capillaries [1, 4]: 6570±555 μg/g | Fold higher fluorine concentration in capillaries than in surrounding tissue, normal tissue ([1]; sample 8, 35 mM): 3 times | Average fluorine concentration, pathological tissue, tumor section (surrounding tissue) ([2]; Sample 6, serial tumor section S1, 20 mM in PBS, 100 μL per embryo (0.49 mg fluorine)): 450±35 μg/g | Average fluorine concentration, pathological tissue, capillaries of tumor section ([2]; Sample 6, serial tumor section S1, 20 mM in PBS, 100 μL per embryo): 610±70 μg/g | Average fluorine concentration, pathological tissue, capillaries of tumor section [2, 5]: 360±50 μg/g | Average fluorine concentration, pathological tissue, tumor section (surrounding tissue) [2, 5]: 270±20 μg/g | Average fluorine concentration, pathological tissue, tumor section (surrounding tissue) ([2]; Sample 7, serial tumor section S1, 35 mM in PBS, 100 μL per embryo (0.85 mg fluorine)): 345±30 μg/g | Average fluorine concentration, pathological tissue, capillaries of tumor section ([2]; Sample 7, serial tumor section S1, 35 mM in PBS, 100 μL per embryo): 650±70 μg/g | Average fluorine concentration, pathological tissue, capillaries of tumor section [2, 6]: 460±45 μg/g | Average fluorine concentration, pathological tissue, tumor section (surrounding tissue) [2, 6]: 215±35 μg/g | Dose dependence of fluorine uptake ([2]; sample 6 (20 mM) versus sample 7 (35 mM)): not dose dependant | Fold higher fluorine concentration in capillaries than in surrounding tissue, tumor sections ([2]; samples 6 and 7, 20 and 35 mM): 1.5 times

O=C[C@H]([18F])[C@@H](O)[C@H](O)[C@H](O)CO [FDG, 2-deoxy-2-[18F]fluoro-D-glucose]
Average fluorine concentration, pathological tissue, Tumor [3]: 1570±180 μg/g | Ratio of fluorine concentrations between capillaries and tissues ([1]; FDG 0.77 and 1.53 M): close to one | Average fluorine concentration within capillaries as well as in surrounding tissues (homogeneous distribution) ([1]; FDG 0.77 and 1.53 M, overall average of Table 1): about 1600 μg/g | Average fluorine concentration, physiological tissue, CAM ([1]; Sample 1, section S1 (CAM sample, no tumor), FDG 1.53 M in PBS, 100 μL per embryo into CAM blood vessel, embryonic day 17, sacrifice 6 h after injection, freeze-dried, PIGE 3.4 MeV, per g dry mass): 1560±180 μg/g | Average fluorine concentration, physiological tissue, Capillaries ([1]; Sample 1, section S1 (CAM sample, no tumor), FDG 1.53 M in PBS, per g dry mass): 960±100 μg/g | Average fluorine concentration, physiological tissue, CAM (surrounding tissue) [1, 7]: 1820±210 μg/g | Average fluorine concentration, physiological tissue, Capillaries [1, 7]: 1460±170 μg/g | Average fluorine concentration, pathological tissue, Tumor ([2]; Sample 3, serial tumor section S2, 100 μL per embryo): 1640±170 μg/g | Average fluorine concentration, pathological tissue, Tumor ([2]; Sample 3, serial tumor section S3, 100 μL per embryo): 1950±240 μg/g | Average fluorine concentration, pathological tissue, Tumor ([2]; Sample 3, serial tumor section S4, 100 μL per embryo): 1470±140 μg/g
